Measurements: patent US12240844B2 (Voronoi, Inc., priority 2019, dated 2025)

Legend:
[1] = molecular target: T1, human GST-CLK1 (129-end) (Homo sapiens, UniProt P49759); test: GST-CLK1 enzyme inhibition, ADP-Glo kinase assay; type: biochemical; conditions: ATP 10 uM
T1 construct: purified human GST-CLK1 (129-end, Signalchem) enzyme; GST; purchased Signalchem
In short: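 ADP formation was read by ADP-Glo luminescence after 1 h at 25° C with 3 ng human GST-CLK1 (129-end), substrate and 10 uM ATP in Tris pH 7.4 buffer containing MgCl2, BSA and DTT. Inhibition relative to untreated solvent control gave IC50 (nM), run in triplicate.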

[2] = tested on: human DYRK1A and Tau; test: Tau phosphorylation inhibition, ClariCELL Kinase Cell-Based Assay (Carnabio)
Experimental: Tau phosphorylation inhibitory efficacy was measured using the ClariCELL™ Kinase Cell-Based Assay service of Carnabio, located in the United States. The compounds are exposed to human embryonic kidney ([…]) cells transiently expressing human DYRK1A and Tau, and then the cells are lysed to release cellular proteins. At this time, the released Tau is captured on a plate, and the degree of phosphorylation is quantified by ELISA using an antibody specific for Tau phosphorylation.

[3] = molecular target: LRRK2 (Homo sapiens, UniProt Q5S007); test: LRRK2 enzyme inhibition, ADP-Glo kinase assay; type: biochemical; parameters: purchased Invitrogen PR8604B
In short: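 ADP-Glo luminescence read after 2 h at 25° C, 10 μM ATP, 25 ng purified human LRRK2 and […] substrate in Tris-HCl pH7.4 buffer with MgCl2, BSA, DTT. Twelve final concentrations, 50 μM down to 0.000001024 μM; IC50 (nM) from inhibition relative to untreated solvent control.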

[4] = molecular target: T2, human GST-DYRK1A (full length) (Homo sapiens, UniProt Q13627); test: GST-DYRK1A enzyme inhibition, ADP-Glo kinase assay; type: biochemical; conditions: read-out: DYRK1 IC50
T2 construct: purified human GST-DYRK1A (full length, Thermo scientifics) enzyme; GST; purchased Thermo scientifics
In short: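 ADP-Glo luminescence quantified kinase activity after a 1 h, 25° C reaction of 10 ng full-length GST-tagged human DYRK1A, substrate and 10 uM ATP in Tris-HCl buffer pH 7.4 with MgCl2, BSA and DTT. Triplicate IC50 values (nM) calculated relative to untreated solvent control.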

[5] = molecular target: LRRK2 (G2019S) (Homo sapiens, UniProt Q5S007, G2019S); test: LRRK2 G2019S enzyme inhibition, ADP-Glo kinase assay; type: biochemical; parameters: purchased SignalChem L10-12GG
In short: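 Activity read as ADP-Glo luminescence, normalized to untreated solvent control, with IC50 (nM) fitted over 12 final compound levels (top 50 μM). Reaction: 2 h, 25° C, human LRRK2 G2019S 16 ng, ATP 25 μM, substrate 0.2 μg, in Tris-HCl pH 7.4 with MgCl2, BSA and DTT.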

[6] = tested on: MDA-MB-231 cell line; test: MDA-MB-231 cancer cell proliferation inhibition (Cell Titer-Glo); type: cell-based; conditions: Homo sapiens, MDA-MB-231 triple-negative breast cancer cell line, 72 hours
Experimental: (§1) In order to evaluate the cancer cell proliferation inhibitory activity of the compounds of the present invention, the following experiments were performed.
(§2) To evaluate the cancer cell proliferation inhibitory effect, the cell growth rate analysis was performed while culturing MDA-MB-231 cell line (Korean Cell Line Bank #30026) and MDA-MB-468 cell line as the triple-negative breast cancer cell line, and SHP-77 (ATCC #CRL-2195) as the small cell lung cancer cell line in DMEM (HyClone #SH30243) and RPMI medium (HyClone #SH3027.01), respectively. More specifically, the cell lines were each plated at 2000 cells/100 μl in each well of a 96-well flat-bottom plate (coming #3903), and then the example compounds having eleven concentrations which were diluted by ⅓ so that the final concentrations were 10.000000, 3.333333, 1.111111, 0.370370, 0.123457, 0.041152, 0.013717, 0.004572, 0.001524, 0.000508 and 0.000169 μM were treated. After 72 hours, 100 μl of Cell Titer-Glo (Promega G7573) was treated, incubated at RT for 10 minutes, and then luminescence was measured using a microplate reader. The measured luminescence degree was calculated as GI50 using Prism (version 8.2 GraphPad) software.
(§3) In the table below, the following designations were used for the evaluation of proliferation inhibitory activity.

[7] = tested on: SHP-77; test: SHP-77 cancer cell proliferation inhibition (Cell Titer-Glo); type: cell-based; conditions: Homo sapiens, SHP77, SHP-77 small cell lung cancer cell line, 72 hours
Experimental: as §1, §2, §3

T1 sequence (P49759 129-484 limits assumed): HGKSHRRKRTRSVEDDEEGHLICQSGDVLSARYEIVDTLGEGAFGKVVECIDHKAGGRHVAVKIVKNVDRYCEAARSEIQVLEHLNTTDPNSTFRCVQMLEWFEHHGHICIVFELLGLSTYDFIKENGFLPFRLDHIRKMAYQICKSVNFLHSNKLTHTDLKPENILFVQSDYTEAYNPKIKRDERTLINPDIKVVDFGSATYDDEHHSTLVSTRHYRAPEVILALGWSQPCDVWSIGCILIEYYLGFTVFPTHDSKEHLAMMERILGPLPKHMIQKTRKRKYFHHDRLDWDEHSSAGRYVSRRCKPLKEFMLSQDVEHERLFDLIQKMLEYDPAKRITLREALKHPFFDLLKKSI
LRRK2, sequence (Q5S007 970-2527 limits assumed): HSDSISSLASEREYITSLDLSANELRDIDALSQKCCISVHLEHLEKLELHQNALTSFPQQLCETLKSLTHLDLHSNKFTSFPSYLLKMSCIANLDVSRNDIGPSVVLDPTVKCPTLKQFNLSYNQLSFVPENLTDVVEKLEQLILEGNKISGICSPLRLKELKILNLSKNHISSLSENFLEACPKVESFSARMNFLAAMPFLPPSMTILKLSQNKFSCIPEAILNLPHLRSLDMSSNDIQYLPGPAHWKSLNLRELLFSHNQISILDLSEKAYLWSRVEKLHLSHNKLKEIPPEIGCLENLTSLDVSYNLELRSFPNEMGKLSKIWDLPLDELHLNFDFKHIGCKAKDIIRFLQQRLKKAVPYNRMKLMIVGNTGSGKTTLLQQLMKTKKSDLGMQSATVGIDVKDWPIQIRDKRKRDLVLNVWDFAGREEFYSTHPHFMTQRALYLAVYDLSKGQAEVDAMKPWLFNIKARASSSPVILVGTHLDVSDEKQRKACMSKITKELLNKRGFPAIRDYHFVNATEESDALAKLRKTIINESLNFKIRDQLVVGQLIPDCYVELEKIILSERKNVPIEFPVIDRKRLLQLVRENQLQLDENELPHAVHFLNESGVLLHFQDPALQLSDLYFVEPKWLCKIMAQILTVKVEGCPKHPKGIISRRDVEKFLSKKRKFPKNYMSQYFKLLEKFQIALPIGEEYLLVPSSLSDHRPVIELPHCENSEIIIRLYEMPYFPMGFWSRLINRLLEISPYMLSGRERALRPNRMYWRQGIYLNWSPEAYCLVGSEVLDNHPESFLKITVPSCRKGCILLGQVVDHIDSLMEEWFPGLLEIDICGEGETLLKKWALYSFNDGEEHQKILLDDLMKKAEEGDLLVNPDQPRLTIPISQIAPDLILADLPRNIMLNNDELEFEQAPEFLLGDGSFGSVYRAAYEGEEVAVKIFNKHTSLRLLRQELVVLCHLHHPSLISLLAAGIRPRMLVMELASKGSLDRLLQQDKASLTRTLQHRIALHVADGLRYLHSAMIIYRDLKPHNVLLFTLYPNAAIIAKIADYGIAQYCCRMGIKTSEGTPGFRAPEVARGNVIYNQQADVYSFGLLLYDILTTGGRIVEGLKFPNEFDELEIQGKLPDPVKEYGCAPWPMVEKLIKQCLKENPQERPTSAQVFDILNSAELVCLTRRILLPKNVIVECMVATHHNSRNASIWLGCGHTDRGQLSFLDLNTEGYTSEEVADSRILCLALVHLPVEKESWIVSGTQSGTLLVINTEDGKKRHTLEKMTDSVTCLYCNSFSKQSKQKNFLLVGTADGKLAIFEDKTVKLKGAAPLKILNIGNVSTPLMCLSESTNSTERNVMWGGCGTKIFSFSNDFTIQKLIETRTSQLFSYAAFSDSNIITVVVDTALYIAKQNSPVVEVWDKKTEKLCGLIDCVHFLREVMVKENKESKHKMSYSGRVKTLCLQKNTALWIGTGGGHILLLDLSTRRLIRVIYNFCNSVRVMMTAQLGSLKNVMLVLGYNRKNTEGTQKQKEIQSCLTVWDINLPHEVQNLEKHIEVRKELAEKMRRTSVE
LRRK2 (G2019S), sequence (Q5S007 970-2527 G2019S limits assumed): as the sequence (Q5S007 970-2527 limits assumed) above, with G1050S counted along it

IC50 [1] [nM]	IC50 [3] [nM]	IC50 [4] [nM]	IC50 [5] [nM]	GI50 [6] [nM]	GI50 [7] [nM]	SMILES	inhibition at 0.25 µM [2] [%]	inhibition at 0.5 µM [2] [%]	inhibition at 1 µM [2] [%]
< 100	< 100	< 100	< 100			CNc1cc(Nc2ccc(S(=O)(=O)N3CCC(N4C[C@@H]5C[C@H]4CO5)CC3)cc2OC)nc2[nH]cc(C(F)(F)F)c12 [Example 242, N^6-(4-((4-((1S,4S)-2-oxa-5-azabicyclo[2.2.1]heptan-5-yl)piperidin-1-yl)sulfonyl)-2-methoxyphenyl)-N^4-methyl-3-(trifluoromethyl)-1H-pyrrolo[2,3-b]pyridine-4,6-diamine]	49.8	77.2	108
301 to 1000	301 to 1000	301 to 1000		301 to 1000	301 to 1000	COc1cc(S(=O)(=O)N2CCC(N3CCOCC3)CC2)ccc1Nc1cc(NC2CCC2)c2c(C(F)(F)F)c[nH]c2n1 [Example 202, N^4-cyclobutyl-N^6-(2-methoxy-4-((4-morpholinopiperidin-1-yl)sulfonyl)phenyl)-3-(trifluoromethyl)-1H-pyrrolo[2,3-b]pyridine-4,6-diamine]			
301 to 1000	101 to 300	101 to 300		301 to 1000	301 to 1000	CCOc1cc(Nc2ccc(S(=O)(=O)N3CCC(N4CCOCC4)CC3)cc2OC)nc2[nH]cc(C(F)(F)F)c12 [Example 232, 4-ethoxy-N-(2-methoxy-4-((4-morpholinopiperidin-1-yl)sulfonyl)phenyl)-3-(trifluoromethyl)-1H-pyrrolo[2,3-b]pyridin-6-amine]			
< 100		< 100	< 100			C=CCNc1cc(Nc2ccc(C(=O)N3CCC(N4CCOCC4)CC3)c3c2OCC3)nc2[nH]cc(C(F)(F)F)c12 [Example 255, (7-((4-(allylamino)-3-(trifluoromethyl)-1H-pyrrolo[2,3-b]pyridin-6-yl)amino)-2,3-dihydrobenzofuran-4-yl)(4-morpholinopiperidin-1-yl)methanone]	47.7	89.2	104
301 to 1000		101 to 300	< 100	301 to 1000	301 to 1000	CNc1cc(Nc2cc(F)c(S(=O)(=O)N3CCC(N4CCOCC4)CC3)cc2OC)nc2[nH]cc(C(F)(F)F)c12 [Example 265, N^6-(5-fluoro-2-methoxy-4-((4-morpholinopiperidin-1-yl)sulfonyl)phenyl)-N^4-methyl-3-(trifluoromethyl)-1H-pyrrolo[2,3-b]pyridine-4,6-diamine]			
< 100	< 100	< 100	< 100			CCNc1cc(Nc2ccc(C(=O)N3CC[C@H](N4CCOCC4)C3)c3c2OCC3)nc2[nH]cc(C(F)(F)F)c12 [Example 215, (S)-(7-((4-(ethylamino)-3-(trifluoromethyl)-1H-pyrrolo[2,3-b]pyridin-6-yl)amino)-2,3-dihydrobenzofuran-4-yl)(3-morpholinopyrrolidin-1-yl)methanone]	30	70.8	82
< 100	101 to 300	< 100	101 to 300	301 to 1000		CNc1cc(Nc2ccc(P3(=O)CCN(C4CCOCC4)CC3)cc2OC)nc2[nH]cc(C(F)(F)F)c12 [Example 216, 4-(3-methoxy-4-((4-(methylamino)-3-(trifluoromethyl)-1H-pyrrolo[2,3-b]pyridin-6-yl)amino)phenyl)-1-(tetrahydro-2H-pyran-4-yl)-1,4-azaphosphinane 4-oxide]	22.8	30.3	49.5

Continued, compound first:

SMILES	IC50 [1] [nM]	IC50 [3] [nM]	IC50 [4] [nM]	IC50 [5] [nM]	GI50 [6] [nM]	GI50 [7] [nM]	inhibition at 0.25 µM [2] [%]	inhibition at 0.5 µM [2] [%]	inhibition at 1 µM [2] [%]
COCCNc1cc(Nc2ccc(P3(=O)CCN(C4CCOCC4)CC3)cc2OC)nc2[nH]cc(C(F)(F)F)c12 [Example 95, 4-(3-methoxy-4-((4-((2-methoxyethyl)amino)-3-(trifluoromethyl)-1H-pyrrolo[2,3-b]pyridin-6-yl)amino)phenyl)-1-(tetrahydro-2H-pyran-4-yl)-1,4-azaphosphinane 4-oxide]	101 to 300	101 to 300	< 100	101 to 300	301 to 1000		9.5	29.2	33.3
CNc1cc(Nc2ccc(S(=O)(=O)N3CCOCC3)cc2OC)nc2[nH]ccc12 [Example 10, N^6-(2-methoxy-4-(morpholinosulfonyl)phenyl)-N^4-methyl-1H-pyrrolo[2,3-b]pyridine-4,6-diamine]	301 to 1000		301 to 1000	101 to 300	301 to 1000	301 to 1000			
COCCNc1cc(Nc2ccc(P3(=O)CCN(C4COC4)CC3)cc2OC)nc2[nH]cc(C(F)(F)F)c12 [Example 41, 4-(3-methoxy-4-((4-((2-methoxyethyl)amino)-3-(trifluoromethyl)-1H-pyrrolo[2,3-b]pyridin-6-yl)amino)phenyl)-1-(oxetan-3-yl)-1,4-azaphosphinane 4-oxide]	< 100	< 100	< 100		301 to 1000				
CCNc1cc(Nc2ccc(P3(=O)CCN(C4COC4)CC3)cc2OC)nc2[nH]cc(C(F)(F)F)c12 [Example 39, 4-(4-((4-(ethylamino)-3-(trifluoromethyl)-1H-pyrrolo[2,3-b]pyridin-6-yl)amino)-3-methoxyphenyl)-1-(oxetan-3-yl)-1,4-azaphosphinane 4-oxide]	301 to 1000	101 to 300	101 to 300		301 to 1000				
O=C(c1ccc(Nc2cc(NC3CC3)c3c(C(F)(F)F)c[nH]c3n2)c2c1OCCO2)N1CCC(N2CCOCC2)CC1 [Example 163, (8-((4-(cyclopropylamino)-3-(trifluoromethyl)-1H-pyrrolo[2,3-b]pyridin-6-yl)amino)-2,3-dihydrobenzo[b] [1,4]dioxin-5-yl)(4-morpholinopiperidin-1-yl)methanone]	< 100	< 100	101 to 300	< 100	301 to 1000				
COC[C@@H](C)Nc1cc(Nc2ccc(S(=O)(=O)N3CCC(N4CCOCC4)CC3)cc2OC)nc2[nH]cc(C(F)(F)F)c12 [Example 196, (R)-N^6-(2-methoxy-4-((4-morpholinopiperidin-1-yl)sulfonyl)phenyl)-N^4-(1-methoxypropan-2-yl)-3-(trifluoromethyl)-1H-pyrrolo[2,3-b]pyridine-4,6-diamine]	301 to 1000	< 100	301 to 1000		301 to 1000	101 to 300			
COc1cc(S(=O)(=O)N2CCC(N3CCOCC3)CC2)ccc1Nc1cc(NC(C)C)c2c(C(F)(F)F)c[nH]c2n1 [Example 198, N^4-isopropyl-N^6-(2-methoxy-4-((4-morpholinopiperidin-1-yl)sulfonyl)phenyl)-3-(trifluoromethyl)-1H-pyrrolo[2,3-b]pyridine-4,6-diamine]	301 to 1000		301 to 1000		301 to 1000	301 to 1000			
